Legend:
[1] = In vitro plasma stability, human plasma; settings: 37 °C, time point 120 min; for Plasma stability % Remaining, Human: 2 μM
[2] = In vitro plasma stability, SD rat plasma; settings: 37 °C, time point 120 min; for Plasma stability % Remaining, Rat: 2 μM
[3] = Stability in simulated gastric fluid (SGF); settings: for SGF Stability, % remaining, 1h / SGF Stability, % remaining, 24h: 10 μM, pH 1.2, room temperature
[4] = In vitro plasma stability, CD-1 mouse plasma; settings: 37 °C, time point 120 min; for Plasma stability % Remaining, Mouse: 2 μM
[5] = In vitro plasma stability, beagle dog plasma; settings: for Plasma stability % Remaining, Dog: 2 μM, 37 °C, time point 120 min
[6] = Caco-2 permeability / efflux transporter substrate; settings: human
Caco-2 cells = assay: Caco-2 permeability / efflux transporter substrate; settings: for Caco-2 Mean Papp A to B / Caco-2 Mean Papp B to A: 3 μM, pH 7.4, 120 min; for Caco-2 Rank Papp / Caco-2 Efflux Ratio / Caco-2 Mean Recovery % A to B / Caco-2 Mean Recovery % B to A / Efflux Transporter Substrate: Caco-2
[7] = In vitro plasma stability, cynomolgus monkey plasma; settings: for Plasma stability % Remaining, Monkey: 2 μM, 37 °C, time point 120 min
[8] = Stability in fasted simulated intestinal fluid (FaSSIF); settings: pH 6.5, room temperature; for FaSSIF Stability, % remaining, 6h / FaSSIF Stability, % remaining, 24h: 10 μM
Mtb H37Rv [9] = assay: MIC90 against replicating (R) Mtb H37Rv, with or without clavulanate; format: cell-based, Mycobacterium tuberculosis; settings: Table S4; for Mtb H37Rv R + CLAV (MIC90): clavulanate 4 μg/mL; for Mtb H37Rv R (MIC90): no clavulanate
Mtb H37Rv [10] = assay: MIC90 against nonreplicating (NR, 4-stress) Mtb H37Rv, with or without clavulanate; format: cell-based, Mycobacterium tuberculosis; settings: 4-stress nonreplicating, Table S4; for Mtb H37Rv NR + CLAV (MIC90): clavulanate 4 μg/mL; for Mtb H37Rv NR (MIC90): no clavulanate
E. coli = assay: Microbial spectrum, E. coli; format: cell-based, Escherichia coli; settings: clavulanate 4 μg/mL; Table S4
P. aeruginosa = assay: Microbial spectrum, P. aeruginosa; format: cell-based, Pseudomonas aeruginosa; settings: clavulanate 4 μg/mL; Table S4
S. aureus = assay: Microbial spectrum, S. aureus; format: cell-based, Staphylococcus aureus; settings: clavulanate 4 μg/mL; Table S4
C. albicans = assay: Microbial spectrum, C. albicans; format: cell-based, Candida albicans; settings: no clavulanate; Table S4
plasma proteins [11] = assay: Plasma protein binding (equilibrium dialysis), human; settings: 2 μM
plasma proteins [12] = assay: Plasma protein binding (equilibrium dialysis), SD rat; settings: 2 μM
plasma proteins [13] = assay: Plasma protein binding (equilibrium dialysis), beagle dog; settings: 2 μM
plasma proteins [14] = assay: Plasma protein binding (equilibrium dialysis), CD-1 mouse; settings: 2 μM
plasma proteins [15] = assay: Plasma protein binding (equilibrium dialysis), cynomolgus monkey; settings: 2 μM
[16] = simulated gastric fluid (SGF), pH 1.2

Row | SMILES | Caco-2 Rank Papp (Caco-2 cells) | Mtb H37Rv R + CLAV (MIC90) (Mtb H37Rv [9]) [µM] | Mtb H37Rv R (MIC90) (Mtb H37Rv [9]) [µM] | Mtb H37Rv NR + CLAV (MIC90) (Mtb H37Rv [10]) [µM] | Mtb H37Rv NR (MIC90) (Mtb H37Rv [10]) [µM] | E.coli R + CLAV (MIC90) (E. coli) [µM] | P.aeruginosa R + CLAV (MIC90) (P. aeruginosa) [µM] | S.aureus R + CLAV (MIC90) (S. aureus) [µM] | C.albicans R (MIC90) (C. albicans) [µM] | SGF Stability, % remaining, 1h [3] [%] | SGF Stability, % remaining, 24h [3] [%] | Caco-2 Mean Papp A to B (Caco-2 cells) | Caco-2 Mean Papp B to A (Caco-2 cells) | Caco-2 Mean Recovery % A to B (Caco-2 cells) [%] | Caco-2 Mean Recovery % B to A (Caco-2 cells) [%] | % bound to plasma, Human (plasma proteins [11]) [%] | % bound to plasma, SD Rat (plasma proteins [12]) [%] | % bound to plasma, Beagle Dog (plasma proteins [13]) [%] | % bound to plasma, CD-1 Mouse (plasma proteins [14]) [%] | % bound to plasma, Cynomolgus Monkey (plasma proteins [15]) [%] | further results
1 | C[C@@H](O)[C@H]1C(=O)N2C(C(=O)O)=C(S[C@@H]3CN[C@H](C(=O)Nc4cccc(C(=O)O)c4)C3)[C@H](C)[C@H]12 [Ertapenem, reference compound] | Low | – | – | – | – | – | – | – | – | – | – | – | – | – | – | – | – | – | – | – | remaining at 2 h, 2 μM ([1]; human, plasma, Plasma stability % Remaining): 77.5%; remaining at 2 h, 2 μM ([2]; SD, rat, plasma, Plasma stability % Remaining): 69.1%; remaining at 1 h, 10 μM [3, 16]: 0%; remaining at 24 h, 10 μM [3, 16]: 0%; remaining at 2 h, 2 μM ([4]; male, CD-1, mouse, plasma, Plasma stability % Remaining, Mouse): 74.2%; remaining at 2 h, 2 μM ([5]; beagle, dog, plasma): 70.7%; Papp A→B at 120 min, 3 μM ([6]; Caco-2, pH 7.4): < 0.23 ×10⁻⁶ cm/s; Papp B→A at 120 min, 3 μM ([6]; Caco-2, pH 7.4): < 0.21 ×10⁻⁶ cm/s; recovery at 120 min, 3 μM ([6]; Caco-2, pH 7.4, Caco-2 Mean Recovery % A to B): < 116%; recovery at 120 min, 3 μM ([6]; Caco-2, pH 7.4, Caco-2 Mean Recovery % B to A): < 112%; remaining at 2 h, 2 μM ([7]; monkey, plasma): 115%; remaining at 6 h, 10 μM ([8]; fasted simulated intestinal fluid (FaSSIF), pH 6.5, FaSSIF Stability, % remaining, 6h): 86.8%; remaining at 24 h, 10 μM ([8]; fasted simulated intestinal fluid (FaSSIF), pH 6.5, FaSSIF Stability, % remaining, 24h): 85.8%
2 | CON=C(C(=O)N[C@@H]1C(=O)N2C(C(=O)O)=C(CSc3cccc[n+]3[O-])CS[C@H]12)c1csc(N)n1 [TBBL-0000539] | Low | 1.9 | 2 | 4.6 | 4.7 | 13.1 | > 100 | 17.3 | > 100 | 104.45 | 90.77 | < 0.10 10-6 cm/s | 0.31 10-6 cm/s | < 96.40 | 105.53 | 56.9 | 61.3 | 5.2 | 20.9 | 84.3 | Plasma stability % Remaining, Human [1]: 83.4%; Plasma stability % Remaining, Rat [2]: 98.2%; Plasma stability % Remaining, Mouse [4]: 92.4%; Plasma stability % Remaining, Dog [5]: 79.7%; Caco-2 Efflux Ratio (Caco-2 cells): > 3.03; Efflux Transporter Substrate (Caco-2 cells): Likely; Plasma stability % Remaining, Monkey [7]: 120.8%
3 | NCc1ccccc1CC(=O)N[C@@H]1C(=O)N2C(C(=O)O)=C(CSc3nnnn3CCO)CS[C@H]12 [TBBL-0000656] | Low | 2.1 | 5.8 | > 100 | > 100 | 9.8 | > 100 | > 100 | > 100 | 87.12 | 53.93 | < 0.12 10-6 cm/s | 0.27 10-6 cm/s | < 102.47 | 106.09 | 23.3 | 50.2 | 11.2 | 23.0 | 22.0 | Plasma stability % Remaining, Human [1]: 75.1%; Plasma stability % Remaining, Rat [2]: 85.1%; Plasma stability % Remaining, Mouse [4]: 95.0%; Plasma stability % Remaining, Dog [5]: 74.7%; Caco-2 Efflux Ratio (Caco-2 cells): > 2.26; Efflux Transporter Substrate (Caco-2 cells): Likely; Plasma stability % Remaining, Monkey [7]: 85.7%; FaSSIF Stability, % remaining, 6h [8]: 89.32%; FaSSIF Stability, % remaining, 24h [8]: 70.9%
4 | CCCc1nnc(SCC2=C(C(=O)O)N3C(=O)[C@@H](NC(=O)Cc4ccc(C(=N)N)cc4)[C@H]3SC2)s1 [TBBL-0000314] | Low | 0.8 | 14.1 | > 100 | > 100 | > 100 | > 100 | 1.6 | > 100 | 76.41 | 1.85 | < 0.07 10-6 cm/s | < 0.06 10-6 cm/s | < 94.56 | < 107.68 | 65.7 | 84.6 | 46.7 | 67.9 | 60.1 | Plasma stability % Remaining, Human [1]: 77.2%; Plasma stability % Remaining, Rat [2]: 73.3%; Plasma stability % Remaining, Mouse [4]: 76.2%; Plasma stability % Remaining, Dog [5]: 77.0%; Plasma stability % Remaining, Monkey [7]: 103.9%; FaSSIF Stability, % remaining, 6h [8]: 101.85%; FaSSIF Stability, % remaining, 24h [8]: 95.17%
5 | CC(=O)OCC1=C(C(=O)O)N2C(=O)[C@@H](NC(=O)CSc3ccncc3)[C@H]2SC1 [TBBL-0000063] | Low | 1.9 | 13.1 | > 100 | > 100 | > 100 | > 100 | 0.8 | > 100 | 87.31 | 27.14 | < 0.41 10-6 cm/s | < 0.37 10-6 cm/s | < 87.73 | < 102.87 | 38.7 | 42.4 | 27.8 | 14.7 | 0.0 | FaSSIF Stability, % remaining, 6h [8]: 102.47%; FaSSIF Stability, % remaining, 24h [8]: 62%
